# Experimental data as given in patent publication US4142046A, “Intermediates for the preparation of 7-acyl-3-(substituted triazolylthiomethyl)cephalosporins” (SmithKline Corporation, priority 1976, dated 1979).
# Like-named read-outs stand apart in the source and are kept apart here.
# How the values were obtained:
# Kleb. pneumo. 4200 = assay: In vivo mouse protection (ED50); details: for ED50: Mus musculus
# Kleb. pneumo. SK 4200 = assay: MIC in vitro; format: cell-based; details: read-out: MIC in vitro
# Description: (§1) The compounds of Formula I have antibacterial activity against both Gram-positive and Gram-negative organisms. Minimum inhibitory concentrations (MIC's) ranged from 0.2 to >200 μg./ml. in in vitro testing. […] Compound numbers corresponding to structures are given in the experimental section.
# Salmonella ATCC 12176 = assay: MIC in vitro; format: cell-based; details: ATCC12176
# Description: as §1
# [1] = test system: Entero. aerog. ATCC 13048; assay: MIC in vitro; format: cell-based
# Description: as §1
# Proteus Morgani 179 = assay: MIC in vitro; format: cell-based
# Description: as §1
# Pseudo. sp. HH 63 = assay: MIC in vitro; format: cell-based
# Description: as §1
# S. aureus SK 23390 = assay: MIC in vitro; format: cell-based; details: Staphylococcus aureus
# Description: as §1
# E. coli HH 33779 = assay: MIC in vitro; format: cell-based; details: Escherichia coli, HH33779
# Description: as §1
# Kleb. pneumo. SK 1200 = assay: MIC in vitro; format: cell-based
# Description: as §1
# Strep. faecalis HH 34358 = assay: MIC in vitro; format: cell-based; details: Enterococcus faecalis, HH34358, Strep. faecalis HH 34358
# Description: as §1
# Serra. marc. ATCC 13880 = assay: MIC in vitro; format: cell-based
# Description: as §1
# S. aureus HH 127 = assay: MIC in vitro; format: cell-based; details: Staphylococcus aureus, HH127, read-out: MIC in vitro
# Description: as §1
# E. coli SK 12140 = assay: MIC in vitro; format: cell-based; details: Escherichia coli
# Description: as §1
# Shigella HH 117 = assay: MIC in vitro; format: cell-based; details: for MIC: Shigella, HH117, Shigella HH 117
# Description: as §1
# Entero. cloacae HH 31254 = assay: MIC in vitro; format: cell-based; details: for MIC: Enterobacter cloacae
# Description: as §1
# E. coli 12140 = assay: In vivo mouse protection (ED50)
# S. villaluz = assay: MIC in vitro; format: cell-based; details: read-out: MIC in vitro
# Description: as §1
# [2] = SK23390, S. aureus SK 23390, read-out: MIC in vitro
# [3] = read-out: MIC in vitro, Kleb. pneumo. SK 1200
# [4] = SK12140, E. coli SK 12140, read-out: MIC in vitro
# [5] = HH31254, Entero. cloacae HH 31254, read-out: MIC in vitro
# [6] = Escherichia coli, 12140, po, E. coli 12140, p.o.
# [7] = Escherichia coli, 12140, sc, E. coli 12140, s.c.
# [8] = SK23390, read-out: MIC in vitro
# [9] = Kleb. pneumo. SK 1200, read-out: MIC in vitro
SMILES,"ED50 (Kleb. pneumo. 4200; po, Kleb. pneumo. 4200, p.o.)","ED50 (Kleb. pneumo. 4200; sc, Kleb. pneumo. 4200, s.c.)",MIC (Kleb. pneumo. SK 4200; Kleb. pneumo. SK 4200),MIC (Salmonella ATCC 12176),MIC [1],MIC (Proteus Morgani 179),MIC (Pseudo. sp. HH 63),MIC (S. aureus SK 23390; [2]),MIC (E. coli HH 33779),MIC (Strep. faecalis HH 34358),MIC (Serra. marc. ATCC 13880),MIC (S. aureus HH 127),MIC (E. coli SK 12140; [4]),MIC (Shigella HH 117),MIC (Entero. cloacae HH 31254; [5]),ED50 (E. coli 12140; [6]),ED50 (E. coli 12140; [7]),MIC (S. villaluz),MIC (S. aureus SK 23390; [8]),MIC (Kleb. pneumo. SK 1200; [9]),further results
"O=C(O)Cc1nc(SCC2=C(C(=O)O)N3C(=O)C(NC(=O)[C@H](O)c4ccccc4)[C@H]3SC2)n[nH]1 (stereo partly drawn) [IX, 7-D-Mandelamido-3-(5-carboxymethyl-1,2,4-triazol-3-ylthiomethyl)-3-cephem-4-carboxylic acid]",71 mg/kg,1.5 mg/kg,1.6 µg/mL,1.6 µg/mL,6.3 µg/mL,200 µg/mL,> 200 µg/mL,1.6 µg/mL,3.1 µg/mL,200 µg/mL,> 200 µg/mL,3.1 µg/mL,3.1 µg/mL,0.8 µg/mL,3.1 µg/mL,41 mg/kg,1 mg/kg,–,–,–,"ED50 in vivo (Kleb. pneumo. 4200; Kleb. pneumo. 4200, s.c.): < 3 mg/kg; MIC in vitro (Kleb. pneumo. SK 1200; Kleb. pneumo. SK 1200): 0.2 µg/mL; MIC (Kleb. pneumo. SK 1200; [3]): 0.4 µg/mL; MIC in vitro (Serra. marc. ATCC 13880): 200 µg/mL; MIC in vitro (Shigella HH 117; Shigella HH 117): 1.6 µg/mL; MIC in vitro (Entero. cloacae HH 31254; Entero. cloacae HH 31254): 1.6 µg/mL"
"N[C@@H](C(=O)NC1C(=O)N2C(C(=O)O)=C(CSc3[nH]nnc3C(=O)O)CS[C@H]12)c1ccccc1 (stereo partly drawn) [V, 7-(D-α-Aminophenylacetamido)-3-(4-carboxy-1,2,3-triazol-5-ylthiomethyl)-3-cephem-4-carboxylic acid]",> 50 mg/kg,> 50 mg/kg,–,–,25 µg/mL,> 200 µg/mL,> 200 µg/mL,19 µg/mL,25 µg/mL,200 µg/mL,> 200 µg/mL,12.5 µg/mL,9 µg/mL,–,–,> 200 mg/kg,25 mg/kg,200 µg/mL,12.5 µg/mL,3.1 µg/mL,"MIC in vitro (Kleb. pneumo. SK 1200; Kleb. pneumo. SK 1200): 4.7 µg/mL; MIC (E. coli SK 12140; SK12140, read-out: MIC in vitro, E. coli SK 12140): 12.5 µg/mL"
"O=C(O)C1=C(CSc2[nH]nnc2C(=O)O)CS[C@@H]2C(NC(=O)[C@H](O)c3ccccc3)C(=O)N12 (stereo partly drawn) [VI, 7-D-Mandelamido-3-(4-carboxy-1,2,3-triazol-5-ylthiomethyl)-3-cephem-4-carboxylic acid]",> 200 mg/kg,86 mg/kg,–,12.5 µg/mL,50 µg/mL,> 200 µg/mL,> 200 µg/mL,–,25 µg/mL,> 200 µg/mL,> 200 µg/mL,6.3 µg/mL,6.3 µg/mL,6.3 µg/mL,–,> 200 mg/kg,25 mg/kg,200 µg/mL,3.1 µg/mL,3.1 µg/mL,"MIC (Kleb. pneumo. SK 4200): 12.5 µg/mL; MIC (Entero. cloacae HH 31254; HH31254, read-out: MIC in vitro): 12.5 µg/mL"
"N[C@@H](C(=O)NC1C(=O)N2C(C(=O)O)=C(CSc3n[nH]c(CC(=O)O)n3)CS[C@H]12)c1ccc(O)cc1 (stereo partly drawn) [VII, 7-(D-α-Amino-4-hydroxyphenylacetamido)-3-(5-carboxymethyl-1,2,4-triazol-3-ylthiomethyl)-3-cephem-4-carboxylic acid]",31 mg/kg,1.1 mg/kg,1.6 µg/mL,1.6 µg/mL,25 µg/mL,> 200 µg/mL,> 200 µg/mL,–,12.5 µg/mL,100 µg/mL,> 200 µg/mL,12.5 µg/mL,3.1 µg/mL,6.3 µg/mL,3.1 µg/mL,> 50 mg/kg,3 mg/kg,> 200 µg/mL,12.5 µg/mL,–,MIC (Kleb. pneumo. SK 1200; [3]): 6.3 µg/mL
"N[C@@H](C(=O)NC1C(=O)N2C(C(=O)O)=C(CSc3n[nH]c(CC(=O)O)n3)CS[C@H]12)c1ccccc1 (stereo partly drawn) [VIII, 7-(D-α-Aminophenylacetamido)-3-(5-carboxymethyl-1,2,4-triazol-3-ylthiomethyl)-3-cephem-4-carboxylic acid]",39 mg/kg,0.8 mg/kg,1.6 µg/mL,0.8 µg/mL,6.3 µg/mL,200 µg/mL,> 200 µg/mL,25 µg/mL,6.3 µg/mL,200 µg/mL,> 200 µg/mL,12.5 µg/mL,3.1 µg/mL,3.1 µg/mL,3.1 µg/mL,> 50 mg/kg,1.1 mg/kg,–,–,1.6 µg/mL,"ED50 in vivo (Kleb. pneumo. 4200; Kleb. pneumo. 4200, s.c.): < 0.78 mg/kg"
